Here are results for three compounds from patent US20090269419A1, “COSMETIC COMPOSITION BASED ON POLYUNSATURATED FATTY ACIDS AND ITS USES” (priority 2006, published 2009).

Test [1] relates to melanocytes. Kind of test: Reduction of intra-cellular melanin. The format is cell-based. The settings on record: AA-2G 2 mM for 48 hours. As for the experimental part: • a) Culturing of melanocytes for 48 hours • b) Addition of AA-2G 2 mM for 48 hours • c) Lysis of the cells in order to read the quantity of melanin contained.
Test [2] has as its system melanocytes. Kind of test: Inhibition of melanogenesis stimulated by theophylline. The format is cell-based. The following applies: AA-2G 2.5 mM for 12 hours; theophylline 0.5 mM. How it is done:
• a) Culturing of melanocytes with AA-2G 2.5 mM+control without AA-2G for 12 hours • b) Stimulation of melanogenesis by theophylline (0.5 mM) • c) Detection of melanin by colorimetry (photos).

The subject of test [3] is collagenase. Kind of test: Anti-collagenase activity on frozen sections, collagen stained with picro-sirius and image analysis. The format is biochemical. As for the experimental part: The anti-collagenase activity test was carried out on ds-es frozen sections. The products to be tested were mixed (volume/volume) with a collagenase solution at 60 U/ml. Incubation took place in a humid chamber for 2 h at 37° C. The remaining collagen was stained with picro-sirius and quantified by image analysis.
• 1. Control TRIS buffer • 2. Collagenase […] • 3. Reference R: phenanthroline • 4. Reference R: phenanthroline+collagenase 60 U/ml • 5. Product P2: Immortelle very precious cream ref 05.34.A • 6. Product P2: Immortelle very precious cream ref 05.34.A+collagenase 60 U/ml
For each sample, 4 microscopic fields were analysed as a function of the size of the sample. Each microscopic field is digitised and analysed according to the method described below using the LEICA QWIN software.
1. Digitised Image • Staining of the collagen network
2. Detection of the Collagen by Thresholding • Binary mask 0
3. Determination of the Zone of Interest • Exclusion of the epidermis and annexes • Inversion of the mask so as to retain only the zone corresponding to the dermis • Binary mask 2
4. Selection of Collagen in the Zone of Interest • Binary mask 3=2+0
5. Surface measurement Measurement of binary mask 3 • Measurement of binary mask 2
6. Results Exporting of results to Excel • Calculation of the percentage of surface area occupied by collagen in the dermis

The subject of test [4] is keratinocytes. Kind of test: Stimulation of ATP synthesis, intracellular ATP content by bioluminescence. Type of test: cell-based. The following applies: 0.01%; incubation for 6 hours. As for the experimental part: After incubation for 6 hours, the intracellular ATP content was measured by bioluminescence using the kit “ATP Monitoring Kit” (LABSYSTEMS) according to the manufacturer's instructions. The results were expressed in mM of ATP and as a percentage of the control group.
Effect of Sepitonic M3 and of cytochrome C on the ATP content of keratinocytes after incubation for 6 hours: […]

`O=C1O[C@H]([C@@H](O)CO)C(O)=C1O[C@H]1O[C@H](CO)[C@@H](O)[C@H](O)[C@H]1O` [AA-2G, O-α-D-glucopyranosyl-(1→2)-L-ascorbic acid]: the “reduction of intra-cellular melanin” value in test [1] was determined as 60%. Moreover, the “quantity of developed melanin versus untreated melanocytes (photos)” value in test [2] is on record as “lesser quantity of developed melanin”.

On to `c1cnc2c(c1)ccc1cccnc12` [phenanthroline], for which the “anti-collagenase activity, in words” value in test [3] is reported as “completely inhibits the effect of collagenase”. Also, in test [3] (With collagenase (60 U/ml mixed volume/volume), 2 h at 37° C.), the “percentage of surface area occupied by collagen in the dermis, Mean (typical variance)” value is given as 90.4 (3.8) %. Also, in test [3] (without collagenase), the “histological examination of the collagen” value is on record as “well structured” and the “percentage of surface area occupied by collagen in the dermis, Mean (typical variance)” value was 88.7 (1.5) %.

As to “Cytochrome C: reference in the keratinocyte ATP test”, the “ATP content of keratinocytes, percentage of the control group (ES)” value in test [4] is listed as “ES 110%”.
